Source: patent publication US4963542A, “Cephalosporin derivatives” (Takeda Chemical Industries, Ltd., priority 1976, dated 1990)

How the values were obtained:
[1] = system: Citrobacter freundii GN99; test: Minimal inhibitory concentration, agar serial dilution; format: cell-based; details: TSA, inoculum 10^7 /ml
Excerpt: (§1) (a) Minimal inhibitory concentrations (Table 1 and 2)
(§2) Method: Agar serial dilution

[2] = system: Klebsiella pneumoniae GN-3835; test: as above; format: cell-based; details: TSA, inoculum 10^7 /ml
Excerpt: as §1, §2

[3] = system: Enterobacter cloacae TN1282; test: as above; format: cell-based; details: TSA, inoculum 10^7 /ml
Excerpt: as §1, §2

Escherichia coli 0-111 [4] = test: as above; format: cell-based; details: TSA, inoculum 10^7 /ml
Excerpt: as §1, §2

[5] = system: Staphylococcus aureus 209P; test: as above; format: cell-based; details: TSA, inoculum 10^7 /ml
Excerpt: as §1, §2

Escherichia coli T-7 = test: as above; format: cell-based; details: TSA, inoculum 10^7 /ml
Excerpt: as §1, §2

Proteus mirabilis GN4359 = test: as above; format: cell-based; details: TSA, inoculum 10^7 /ml
Excerpt: as §1, §2

[6] = system: Serratia marcescens IFO 12648; test: as above; format: cell-based; details: TSA, inoculum 10^7 /ml
Excerpt: as §1, §2

Proteus vulgaris GN4413 = test: as above; format: cell-based; details: TSA, inoculum 10^7 /ml
Excerpt: as §1, §2

[7] = system: Escherichia coli NIHJ JC-2; test: as above; format: cell-based; details: TSA, inoculum 10^7 /ml
Excerpt: as §1, §2

[8] = system: Staphylococcus aureus 1840; test: as above; format: cell-based; details: TSA, inoculum 10^7 /ml
Excerpt: as §1, §2

Proteus rettgeri GN4733 = test: as above; format: cell-based; details: TSA, inoculum 10^7 /ml
Excerpt: as §1, §2

Klebsiella pneumoniae DT = test: as above; format: cell-based; details: TSA, inoculum 10^7 /ml
Excerpt: as §1, §2

Proteus morganii IFO3168 = test: as above; format: cell-based; details: TSA, inoculum 10^7 /ml
Excerpt: as §1, §2

Proteus rettgeri TN338 = test: as above; format: cell-based; details: TSA, inoculum 10^7 /ml
Excerpt: as §1, §2

[9] = system: Citrobacter freundii GN1706; test: as above; format: cell-based; details: TSA, inoculum 10^7 /ml
Excerpt: as §1, §2

Serratia marcescens TN24 = test: as above; format: cell-based; details: TSA, inoculum 10^7 /ml
Excerpt: as §1, §2

[10] = system: Proteus vulgaris IFO 3988; test: as above; format: cell-based; details: TSA, inoculum 10^7 /ml
Excerpt: as §1, §2

Escherichia coli 0-111 [11] = test: Therapeutic effects on infected mice; format: in vivo, Male mouse, ICR/SLC; details: Escherichia coli, 0111, sc, 168 h, s.c. single dose immediately after intraperitoneal infection, 7 days observation
Description: The therapeutic efficacies of several representative compounds [I] of this invention and of cephaloridine on infected mice are also set forth in the tables.
(b) Therapeutic effects on infected mice (Table 3 and Table 4)
Test animal: Male mouse, ICR/SLC
A group of five animals was employed per drug.
Route of infection: Intraperitoneal
Infectious bacteria: Escherichia coli 0-111
Period of observation: 7 days
Method of administration: Test compound (1 mg, 10 mg, 100 mg or 200 mg) was dissolved in sterile saline solution (100 ml) and 0.2 ml of the solution was administered subcutaneously as a single dose immediately after infection. Two fold dilutions of each solution were administered to five groups of 5 mice each.

Row | SMILES | Minimal inhibitory concentration (MIC) [1] | Minimal inhibitory concentration (MIC) [2] | Minimal inhibitory concentration (MIC) [3] | Minimal inhibitory concentration (MIC) (Escherichia coli 0-111 [4]) | Minimal inhibitory concentration (MIC) [5] | Minimal inhibitory concentration (MIC) (Escherichia coli T-7) | Minimal inhibitory concentration (MIC) (Proteus mirabilis GN4359) | Minimal inhibitory concentration (MIC) [6] | Minimal inhibitory concentration (MIC) (Proteus vulgaris GN4413) | Minimal inhibitory concentration (MIC) [7] | Minimal inhibitory concentration (MIC) [8] | Minimal inhibitory concentration (MIC) (Proteus rettgeri GN4733) | Minimal inhibitory concentration (MIC) (Klebsiella pneumoniae DT) | Minimal inhibitory concentration (MIC) (Proteus morganii IFO3168) | Minimal inhibitory concentration (MIC) (Proteus rettgeri TN338) | Minimal inhibitory concentration (MIC) [9] | Minimal inhibitory concentration (MIC) (Serratia marcescens TN24) | Minimal inhibitory concentration (MIC) [10] | ED50 (Escherichia coli 0-111 [11]; Table 4) [mg/kg] | ED50 (Escherichia coli 0-111 [11]; Table 3) [mg/kg]
1 | Cc1nnc(SCC2=C(C(=O)O)N3C(=O)C(NC(=O)/C(=N\O)c4csc(=N)[nH]4)C3SC2)s1 (stereo not drawn) [Example 16, sodium 7-[2-(2-imino-4-thiazolin-4-yl)-2-hydroxyimino-acetamido]-3-(2-methyl-1,3,4-thiadiazol-5-yl)thiomethyl-3-cephem-4-carboxylate (syn-isomer)] | 0.10 | 0.20 | 6.25 | 0.024 | 0.39 | 1.56 | 0.20 | 3.13 | 6.25 | 0.10 | 0.78 | 0.10 | 0.05 | 0.05 | ≤ 0.012 | 0.20 | 0.78 | 0.10 | 0.035 | –
2 | Cn1cnnc1SCC1=C(C(=O)O)N2C(=O)C(NC(=O)/C(=N\O)c3csc(=N)[nH]3)C2SC1 (stereo not drawn) [Example 15, sodium 7-[2-(2-imino-4-thiazolin-4-yl)-2-hydroxyimino-acetamido]-3-(4-methyl-1,2,4-triazol-3-yl)thiomethyl-3-cephem-4-carboxylate (syn-isomer)] | 0.05 | 0.05 | 1.56 | ≤ 0.012 | 0.78 | 0.39 | 0.10 | 0.78 | 3.13 | 0.024 | 0.78 | 0.10 | 0.024 | 0.024 | ≤ 0.012 | 0.05 | 0.78 | 0.05 | 0.016 | –
3 | O=C(Cc1cccs1)N[C@@H]1C(=O)N2C(C(=O)[O-])=C(C[n+]3ccccc3)CS[C@H]12 [Cephaloridine, 7-(2-thienylacetamido)-3-(1-pyridyl)methyl-3-cephem-4-carboxylic acid betaine, reference compound] | 50 | 12.5 | > 100 | 1.56 | 0.05 | > 100 | 6.25 | > 100 | > 100 | 3.13 | 0.39 | > 100 | 1.56 | > 100 | 1.56 | > 100 | > 100 | 6.25 | 1.81 | 2.6
4 | Cn1nnnc1SCC1=C(C(=O)O)N2C(=O)C(NC(=O)/C(=N\O)c3csc(=N)[nH]3)C2SC1 (stereo not drawn) [Example 12, sodium 7-[2-(2-imino-4-thiazolin-4-yl)-2-hydroxyimino-acetamido]-3-(1-methyl-1H-tetrazol-5-yl)thiomethyl-3-cephem-4-carboxylate (syn-isomer)] | 0.05 | 0.10 | 1.56 | ≤ 0.012 | 0.39 | 0.78 | 0.10 | 0.78 | 6.25 | 0.05 | 0.78 | 0.05 | 0.024 | 0.024 | ≤ 0.012 | 0.10 | 0.39 | 0.05 | – | 0.028
5 | CC(=O)OCC1=C(C(=O)O)N2C(=O)C(NC(=O)/C(=N\O)c3csc(=N)[nH]3)C2SC1 (stereo not drawn) [Example 5, sodium 7-[2-(2-imino-4-thiazolin-4-yl)-2-hydroxyimino-acetamido]-3-acetoxymethyl-3-cephem-4-carboxylate (syn-isomer)] | 0.05 | 0.05 | 6.25 | ≤ 0.012 | 0.39 | 0.39 | 0.05 | 6.25 | 12.5 | 0.024 | 0.39 | 0.024 | ≤ 0.012 | 0.20 | ≤ 0.012 | 0.10 | 1.56 | 0.05 | – | 0.033
